This note sets out measurements from PubChem BioAssay AID328 (DTP/NCI, 2004).

Where “and” joins values, the source holds several entries; their conditions need not be identical. Equal entries are not always repeated. Toxic doses and inconclusive results are not listed.

In the assay the test system is BDF1 mice, P388 leukemia ip, median survival T/C. The assay can be described thus: NCI In Vivo Anticancer Drug Screen. Data for tumor model P388 Leukemia (intraperitoneal) in B6D2F1 (BDF1) mice. The conditions noted are these: endpoint: median survival time, higher = longer survival. The gist of the method:
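Steps: implant the tumour, treat one group with compound and another with vehicle, record survival, then divide treated by control.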

[1] abbreviates: dose: 50.0 mg/kg/injection, schedule: Q04DX003 (ip), vehicle: other.
Where [2] appears, read: dose: 100.0 mg/kg/injection, schedule: Q04DX003 (ip), vehicle: other.
[3] abbreviates: dose: 100.0 mg/kg/injection, schedule: Q01DX009 (ip), vehicle: saline with Tween-80.
[4] abbreviates: dose: 100.0 mg/kg/injection, schedule: Q04DX003 (ip), vehicle: saline with Tween-80.
Setting [5] is: dose: 200.0 mg/kg/injection, schedule: Q01DX009 (ip), vehicle: saline with Tween-80.
Where [6] appears, read: dose: 200.0 mg/kg/injection, schedule: Q04DX003 (ip), vehicle: saline with Tween-80.
Where [7] appears, read: dose: 50.0 mg/kg/injection, schedule: Q04DX003 (ip), vehicle: saline with Tween-80.
[8] abbreviates: dose: 50.0 mg/kg/injection, schedule: Q01DX009 (ip), vehicle: saline with Tween-80.
[9] abbreviates: dose: 12.5 mg/kg/injection, schedule: Q01DX009 (ip), vehicle: saline with Tween-80.
Setting [10] is: dose: 25.0 mg/kg/injection, schedule: Q01DX009 (ip), vehicle: saline with Tween-80.
[11] abbreviates: dose: 50.0 mg/kg/injection, schedule: Q04DX003 (ip), vehicle: saline.
Where [12] appears, read: dose: 100.0 mg/kg/injection, schedule: Q04DX003 (ip), vehicle: saline.

Regarding `CCOC(=O)C(Cc1ccc(N(CCCl)CCCl)cc1)NC(=O)C(NC(C)=O)C(C)C` (stereo not drawn), the T/C (dose: 5.0 mg/kg/injection, schedule: Q04DX003 (ip), vehicle: water) is 109 % of control; the T/C (dose: 10.0 mg/kg/injection, schedule: Q04DX003 (ip), vehicle: water) was 157 % of control; the T/C (dose: 20.0 mg/kg/injection, schedule: Q04DX003 (ip), vehicle: water) was 223 % of control; the T/C (dose: 40.0 mg/kg/injection, schedule: Q04DX003 (ip), vehicle: water) was 264 % of control; the T/C (dose: 80.0 mg/kg/injection, schedule: Q04DX003 (ip), vehicle: water) is 150 % of control.
Turning to `CC(C)C1(C(=O)NNC(=O)CCCc2ccc(N(CCCl)CCCl)cc2)OC2(O)CCCCCN2C1=O` (stereo not drawn), the T/C was 175 % of control under setting [1] and 220 % of control under setting [2].
With `CC(=O)[C@@]12OC(C)(C)O[C@@H]1C[C@H]1[C@@H]3C[C@H](C)C4=CC(=O)CC[C@]4(C)[C@H]3CC[C@@]12C`, the T/C under setting [3] was 104 % of control; the T/C under setting [4] is 109 % of control; the T/C under setting [5] was 104 % of control; the T/C under setting [6] is 95 % of control; the T/C (dose: 400.0 mg/kg/injection, schedule: Q04DX003 (ip), vehicle: saline with Tween-80) was 104 % of control.
Regarding `CC(C)CC(Br)C(=O)NCC(=O)NC(Cc1ccccc1)C(=O)O` (stereo not drawn), the T/C is 95 % of control under setting [7], 100 % of control under setting [4] and 95 % of control under setting [6].
With `O=C1C=C(Nc2nc(O)cc(=O)[nH]2)c2ccccc2C1=O`, the T/C (dose: 37.5 mg/kg/injection, schedule: Q01DX001 (ip), vehicle: Klucel (hydroxypropylcellulose) (HPC)) was 100 % of control; the T/C (dose: 75.0 mg/kg/injection, schedule: Q01DX001 (ip), vehicle: Klucel (hydroxypropylcellulose) (HPC)) is 100 % of control; the T/C (dose: 150.0 mg/kg/injection, schedule: Q01DX001 (ip), vehicle: Klucel (hydroxypropylcellulose) (HPC)) is 100 % of control; the T/C (dose: 150.0 mg/kg/injection, schedule: Q04DX003 (ip), vehicle: Klucel (hydroxypropylcellulose) (HPC)) was 95 % of control.
Regarding `CCCCCCCCCCCCN=Cc1cc(Cc2ccc(O)c(C=NCCCCCCCCCCCC)c2)ccc1O`, the T/C under setting [8] is 106 % of control, the T/C under setting [3] is 106 % of control and the T/C under setting [5] was 123 % of control.
On to `NC(=O)Oc1cc(OC(N)=O)cc(N(CCCl)CCCl)c1`, for which the T/C was 158 % of control under setting [9]; 181 % of control under setting [10]; 179 % of control (dose: 25.0 mg/kg/injection, schedule: Q04DX003 (ip), vehicle: other); 168 % of control under setting [8]; 186 % of control under setting [1]; 216 % of control under setting [2].
For `CCCN=C(N)c1ccc(NC(=O)c2ccc(C(=O)Nc3ccc(C(N)=NCCC)cc3)cc2)cc1`, the T/C runs as follows: (dose: 0.5 mg/kg/injection, schedule: Q04DX003 (ip), vehicle: saline with Tween-80) 115 % of control; (dose: 1.0 mg/kg/injection, schedule: Q04DX003 (ip), vehicle: saline with Tween-80) 120 % of control; (dose: 14.0 mg/kg/injection, schedule: Q04DX003 (ip), vehicle: saline with Tween-80) 163 % of control; (dose: 21.0 mg/kg/injection, schedule: Q04DX003 (ip), vehicle: saline with Tween-80) 163 % of control; (dose: 33.0 mg/kg/injection, schedule: Q04DX003 (ip), vehicle: saline with Tween-80) 159 % of control and 200 % of control; under setting [7], 172 % of control and 204 % of control. The T/C by setting is: (dose: 75.0 mg/kg/injection, schedule: Q04DX003 (ip), vehicle: saline with Tween-80) 159 % of control; under setting [4], 190 % of control; under setting [6], 118 % of control.
Turning to `NC(=S)c1nn(C2OC(CO)C(O)C2O)c2ncnc(N)c12` (stereo not drawn), the T/C by setting is: (dose: 0.37 mg/kg/injection, schedule: Q01DX009 (ip), vehicle: saline) 111 % of control; (dose: 0.75 mg/kg/injection, schedule: Q01DX009 (ip), vehicle: saline) 116 % of control.
Turning to `CC/C(=C\c1ccccc1)[N+](=O)[O-]`, the T/C reads like this: (dose: 12.5 mg/kg/injection, schedule: Q01DX009 (ip), vehicle: saline) 96 % of control; (dose: 25.0 mg/kg/injection, schedule: Q01DX009 (ip), vehicle: saline) 114 % of control and 124 % of control; (dose: 50.0 mg/kg/injection, schedule: Q01DX009 (ip), vehicle: saline) 123 % of control; under setting [11], 109 % of control; under setting [12], 100 % of control.
Take `C=CC(O)CN1CC1` (stereo not drawn): the T/C (dose: 10.0 mg/kg/injection, schedule: Q04DX003 (ip), vehicle: saline) is 191 % of control.
On to `CC[S+](CC)CC`, for which the T/C is 109 % of control (dose: 12.5 mg/kg/injection, schedule: Q04DX003 (ip), vehicle: saline); 100 % of control (dose: 25.0 mg/kg/injection, schedule: Q01DX001 (ip), vehicle: saline); 109 % of control (dose: 25.0 mg/kg/injection, schedule: Q04DX003 (ip), vehicle: saline); 100 % of control (dose: 50.0 mg/kg/injection, schedule: Q01DX001 (ip), vehicle: saline); 109 % of control under setting [11]; 100 % of control (dose: 100.0 mg/kg/injection, schedule: Q01DX001 (ip), vehicle: saline). For the same compound, the T/C under setting [12] is 100 % of control.
As for `NC(=O)OCCI`, the T/C was 100 % of control under setting [1]; 120 % of control under setting [2]; 150 % of control and 177 % of control (dose: 132.0 mg/kg/injection, schedule: Q04DX003 (ip), vehicle: Klucel (hydroxypropylcellulose) (HPC)); 90 % of control (dose: 200.0 mg/kg/injection, schedule: Q04DX003 (ip), vehicle: Klucel (hydroxypropylcellulose) (HPC)); 155 % of control (dose: 200.0 mg/kg/injection, schedule: Q04DX003 (ip), vehicle: other).
Take `Cc1ccc(C(=O)CCl)c(C)c1`: the T/C is, setting by setting: under setting [9], 100 % of control; under setting [10], 100 % of control; under setting [8], 95 % of control.
In the case of `C(/C=C/C=C/Nc1ccc(N=Nc2ccccc2)cc1)=Nc1ccc(N=Nc2ccccc2)cc1`, the T/C is 90 % of control under setting [12]; 104 % of control (dose: 200.0 mg/kg/injection, schedule: Q04DX003 (ip), vehicle: saline); 95 % of control (dose: 400.0 mg/kg/injection, schedule: Q04DX003 (ip), vehicle: saline).
`CCc1c(CC(=O)O)c2cc(C)ccc2n1Cc1ccc(Cl)cc1`: the T/C runs as follows: under setting [10], 104 % of control; under setting [8], 109 % of control and 118 % of control; under setting [3], 104 % of control and 109 % of control.
Consider `S=C(Nc1ccccn1)Nc1ccccn1`, for which the T/C was 99 % of control and 106 % of control (dose: 25.0 mg/kg/injection, schedule: Q01DX009 (ip), vehicle: Klucel (hydroxypropylcellulose) (HPC)); 99 % of control and 118 % of control (dose: 50.0 mg/kg/injection, schedule: Q01DX009 (ip), vehicle: Klucel (hydroxypropylcellulose) (HPC)); 89 % of control and 116 % of control (dose: 100.0 mg/kg/injection, schedule: Q01DX009 (ip), vehicle: Klucel (hydroxypropylcellulose) (HPC)); 98 % of control (dose: 200.0 mg/kg/injection, schedule: Q01DX009 (ip), vehicle: Klucel (hydroxypropylcellulose) (HPC)).
On to `Oc1c(Cl)cc(Cl)cc1C=Nc1cc(C(F)(F)F)ccc1NCc1ccccc1`, for which the T/C was 93 % of control under setting [8], 89 % of control under setting [3] and 94 % of control under setting [5].
